Results published in publication PMC7281280, “Is the Way to Fight Cancer Paved with Gold? Metal-Based Carbene Complexes with Multiple and Fascinating Biological Features” (Pharmaceuticals, 2020).

Assays:
MDA-MB-231 cells [1] = conditions: at IC50 value, 24 h
Protocol: At this purpose, we performed immunostaining studies using the mitochondrial probe MitoTracker Deep Red FM and an anti-cytochrome c antibody, to follow the possible release of this protein from the mitochondrial district to the cytoplasm.
The same protocol was performed for mitochondrial staining. […] The primary antibody used in this case was the mouse anti-cytochrome c (556 433), purchased from BD Biosciences. The secondary antibodies used was Alexa Fluor® 488 conjugate goat-anti-mouse (1:500 dilution), purchased from Thermo Fisher Scientific, Waltham, MA, USA.
Images were acquired at 63x magnification and representative fields are shown.

[2] = test system: MCF-10A human mammary epithelial cells; assay: MTT cell viability, normal MCF-10A; assay type: cell-based; conditions: 72 h, mean ± SD
Protocol: (§1) The six cell lines used in this work (MCF-7, MDA-MB-231, HeLa, […], MCF-10A and Hek-293) were purchased from American Type Culture Collection (ATCC, Manassas, VA, USA). MCF-7 human breast cancer cells, estrogen receptor (ER)-positive, were maintained in Dulbecco’s modified Eagle’s medium/nutrient mixture Ham F-12 (DMEM/F12), supplemented with 10% fetal bovine serum (FBS) and 100 U mL^−1 penicillin/streptomycin. MCF-10A human mammary epithelial cells, were cultured in DMEM/F12 medium, supplemented with 5% horse serum (HS, Thermo Fisher Scientific, Milan, Italy), 100 U mL^−1 penicillin/streptomycin, […] hydrocortisone, 20 ng mL^−1 human epidermal growth factor (hEGF), […] insulin, and […] cholera enterotoxin (Sigma–Aldrich, Milan, Italy). MDA-MB-231 human breast cancer cells, known as triple-negative cells (i.e., not overexpressing human epidermal growth factor receptor 2 (HER2), estrogen and progesterone receptors), were cultured in DMEM/F12 supplemented with 5% FBS, 1% L-glutamine and 100 U mL^−1 penicillin/streptomycin. HeLa human epithelial cervix carcinoma cells, estrogen receptor (ER)-negative, and […] human endometrial adenocarcinoma cells, estrogen receptor (ER)-positive, were maintained in minimum essential Eagle’s Medium (MEM), supplemented with 10% FBS, 1% L-glutamine, 100 U mL^−1 penicillin/streptomycin and 1% Non-Essential Amino Acids (NEAA). Hek-293 human embryonic kidney epithelial cells were cultured in DMEM high glucose (4.5 g L^−1), supplemented with 10% FBS, 1% L-glutamine and 100 U mL^–1 penicillin/streptomycin. Cells were maintained at 37 °C in a humidified atmosphere of 95% air and 5% CO2 and periodically screened for contamination.
(§2) Cell viability has been determined using the 3-(4,5-dimethylthiazol-2-y1)-2,5-diphenyltetrazolium bromide (MTT, Sigma–Aldrich, Milan, Italy) assay. Cells have been seeded on 48-well plates and grown in complete medium. Before being treated, cells have been starved in serum free medium for 24 h for allowing cell cycle synchronization. […] Data are representative of three independent experiments; standard deviations (SD) have been shown.

MDA-MB-231 cells [3] = assay: Immunofluorescence of microtubules, MDA-MB-231; assay type: cell-based, human; conditions: at IC50 value, 24 h
Protocol: Cells were grown on glass coverslips in full media, then serum-deprived for 24 h and exposed to compounds for 24 h (concentration equal to its IC50 value). Then, the cells after PBS-washed, were fixed with cold methanol (15 min/−20 °C) and incubated with primary antibody, diluted in blocking solution (4 °C/overnight), as previously described. The mouse anti-β-Actin (69879) and the rabbit anti-β tubulin (9104) were purchased from Santa Cruz Biotechnology and used at 1:100 dilution. Coverslips were then washed 3 times with PBS, then fixed cells were incubated with the secondary antibody Alexa Fluor® 568 conjugate goat-anti-mouse and Alexa Fluor® 488 conjugate goat-anti-rabbit (1:500, Thermo Fisher Scientific, Waltham, MA, USA). Nuclei were stained using DAPI (Sigma–Aldrich, Mila, Italy) for 10 min at a concentration of 0.2 μg/mL then washed 3 times with PBS. Fluorescence was detected using a fluorescence microscope (Leica DM 6000). LAS-X software was used to acquire and process all images.
Figure 5 Immunofluorescence studies. […] Panels A: DAPI, excitation/emission wavelength 350 nm/460 nm; panels B: β-tubulin (Alexa Fluor® 488) excitation/emission wavelength 490 nm/515 nm; panels C show a merge. Representative fields are shown.

MDA-MB-231 cells [4] = assay: Detection of intracellular ROS (DCF-DA); assay type: cell-based, human
Protocol: We used 2,7-dichlorofluorescin diacetate (DCF-DA) as a fluorometric probe for ROS detection and their production was examined under an inverted fluorescence microscope, as already reported.
Cells were grown on glass coverslips until the treatment with compound or menadione (used as positive control) (Sigma–Aldrich, Milan, Italy). Then, cells were incubated with 10 μM 2′-7′-Dichlorofluorescein diacetate (Sigma–Aldrich, Milan, Italy) for 40 min at 37 °C in a 5% CO2 incubator, as previously described. Then, DAPI (0.2 μg mL^−1) counterstain was performed for 10 min at room temperature, in the dark. Cells were then washed three times with cold PBS, adding one drop of mounting solution, then they were observed and imaged under a fluorescence microscope (Leica DM6000; 20× magnification) with excitation/emission wavelength maxima of 490 nm/515 nm (DCF) or 350 nm/460 nm (DAPI). Images are representative of three independent experiments.
Images were acquired at 20× magnification. […] Fields are representative of three separate experiments.

tubulin = assay: In vitro tubulin-polymerization assay (turbidity at 350 nm); assay type: biochemical; conditions: 10 µM
Protocol: Tubulin-polymerization inihibition was measured using in vitro Tubulin-Polymerization Assay Kit purchased fromEMD Millipore Corporation. Polymerization reactions occur in 70 µL final volumes, of which 60 µL is the 60 µM tubulin in 1 × PB-GTP and 10 µL is the test substance dissolved in 1 × PB-GTP. […] These reactives were combined in 96-well plate on ice. After the plate was transferred into the spectrophotometer pre-warmed at 37 °C and the turbidity variation was measured every 30 s at 350 nm for 90 min. The plate was shaked for 10 s before each measurement. Turbidity (absorbance) readings were used to calculate the extent of polymerization [% inhibition = (1−A350 sample/A350 control) × 100].
Figure 4 Tubulin-polymerization assay. […] Two positive control molecules, Paclitaxel and Vinblastine, were used as tubulin-stabilizing and tubulin-destabilizing agents, respectively. DMSO was used as a negative control. Assembly of tubulin into microtubules was determined by measuring the turbidity at 350 nm for 3600 s at 37 °C. All the compounds were used at a concentration of 10 μM.

caspases 3/7 = assay: Caspase-Glo assay, caspases 3/7; conditions: 5 μM, 24 h, MDA-MB-231 cells
MDA-MB-231 cells [5] = conditions: at IC50 value, 24 h; remark: listed apart in the source
[6] = test system: MCF-7 human breast cancer cells; assay: MTT cell viability, MCF-7; assay type: cell-based; conditions: 72 h, mean ± SD
Protocol: as §1, §2

Question: Which cytochrome c localization (MDA-MB-231 cells [1]) does the source give for C[n+]1c(Cl)c(Cl)n(CC(O)c2ccccc2)[c]1[Au-][c]1n(CC(O)c2ccccc2)c(Cl)c(Cl)[n+]1C.[Cl][Au-][Cl] (racemic) [AuL7, bis-[4,5-dichloro-(N-methyl-N’(2-hydroxy-2-phenyl)ethyl-imidazole-2-ylidene)gold(I)]^+[dichloro-gold]^−] here?
Answer: cytochrome c release and diffusion into the cytoplasmic compartment

Question: What about the “mitochondrial integrity (MitoTracker Deep Red FM)” value (MDA-MB-231 cells [1]) of the same molecule?
Answer: loss of mitochondrial structural integrity

Question: And the IC50 [2]?
Answer: > 200 µM

Question: And the “IC50 MCF-10A” value [2]?
Answer: inactive

Question: And the “effect on microtubule network, MDA-MB-231” value (MDA-MB-231 cells [3])?
Answer: vinblastine-like mode of action

Question: And the “ROS production, fold lesser compared to Men-treated cells” value (MDA-MB-231 cells [4]; DCF fluorescence quantified by ImageJ)?
Answer: 1.5 fold

Question: What about the “ROS production (DCF green fluorescence)” value (MDA-MB-231 cells [4]; fluorescence microscopy) of the same molecule?
Answer: significantly higher with respect to the vehicle-treated cells

Question: And the “effect on tubulin-polymerization reaction” value (tubulin)?
Answer: tubulin-polymerization inhibitor

Question: What about the “final optical density value at 350 nm (OD350)” value (tubulin; 37 °C, vehicle (DMSO) about 0.43) of the same molecule?
Answer: about 0.25

Question: What about the “caspases 3/7 activity” value (caspases 3/7) of the same molecule?
Answer: clear increase

Question: And the “apoptosis (TUNEL)” value (MDA-MB-231 cells [5])?
Answer: green nuclear fluorescence

Question: And the IC50 [6]?
Answer: 5.18 ± 0.4 µM
